# Test results from patent US8673951B2, “Isoxazoline-substituted benzamide compound and pesticide” (priority 2005, dated 2014).
# Key:
# Assay type in all cases: in vivo
# [1] = test system: cabbage moth (Plutella xylostella); test: Insecticidal test against cabbage moth (Test Example 1); conditions: foliar, 144 h, read-out: insecticidal rate (rate of dead insects)
# [2] = test system: common cutworm (Spodoptera litura); test: Insecticidal test against common cutworm (Test Example 2); conditions: in Brassica oleracea, foliar, 144 h, read-out: insecticidal rate (rate of dead insects)
# Description: A 10% emulsifiable concentrate (depending on the compounds, 10% wettable powder was applied for the test) of the compound of the present invention was diluted with water […] To the chemical solution was dipped leaves of cabbage for about 10 seconds, and after air-drying, they were placed in a laboratory dish, then 5-common cutworm (Spodoptera litura) in the stage of second instar larva per the dish were released therein, and the dish was covered with a lid and contained at a thermostat chamber at 25° C. […] Incidentally, the test was carried out with two districts.
# [3] = test system: American dog tick (Dermacentor variabilis); test: Insecticidal test against American dog tick (Test Example 20); conditions: 96 h, thin film in laboratory dish, 0.1 μg/cm^2 (*), protonymph, after 4 days, read-out: insecticidal rate (rate of dead insects)
# Description: After 400 μl of acetone solution in which 4 mg of the compound of the present invention was dissolved in 40 ml of acetone (concentration 100 ppm) was coated on the bottom face and side face of two laboratory dishes having an inner diameter of 5.3 cm, acetone was vaporized to prepare a thin film of the compound of the present invention on the inner wall of the laboratory dish. As the surface area of the inner wall is 40 cm^2, the treated dosage is […]. […] A number of dead insect(s) after 4 days was counted and a rate of dead insects was calculated by the calculation equation similar to that in Test Example 1. Incidentally, the test was carried out with one district.
# [4] = test system: oriental tea tortix (Homona magnanima); test: Insecticidal test against oriental tea tortix, Comparative Example 2 (Test Example 24, Table 18); conditions: cabbage leaf dip, third instar larva, after 6 days
# Description: (§1) A 10% emulsifiable concentrate of the compound of the present invention or comparative compound was diluted with water containing a spreading agent to prepare a chemical solution with a prescribed concentration. To the chemical solution was dipped leaves of cabbage for about 10 seconds, and after air-drying, they were placed in a laboratory dish, then 7-oriental tea tortix (Homona magnanima) in the stage of third instar larva per the dish were released therein, and the dish was covered with a perforated lid and contained at a thermostat chamber at 25° C. A number of dead insect(s) after 6 days was counted and a rate of dead insects was calculated by the following calculation equation. In the meantime, the test was carried out with two areas. Rate of dead insects (%)=(Number of dead insects/Number of released insects)×100 The rate of dead insects in each prescribed concentration of the compounds tested is shown in Table 18.
# [5] = test system: corn earworm (Helicoverpa armigera); test: Insecticidal test against corn earworm, Comparative Example 1 (Test Example 23, Table 17); conditions: cabbage leaf dip, third instar larva, after 6 days
# Description: as §1, with “then 7-corn earworm (Helicoverpa armigera)” for “then 7-oriental tea tortix (Homona magnanima)”, “C. Artificial feed (1 cm^3) was added after 2 days of treatment, and a” for “C. A”, “Table 17.” for “Table 18.”
structure (smiles),measurement,setting,value
"CCON=CNC(=O)c1ccc(C2=NOC(c3cc(Cl)cc(Cl)c3)(C(F)(F)F)C2)cc1C (stereo not shown) [6-005, 4-[5-(3,5-Dichlorophenyl)-5-trifluoromethyl-4,5-dihydroisoxazole-3-yl]-N-(ethoxyimino-methyl)-2-methyl benzoic acid amide]",pest or weed control at 10 ppm,[1],≥ 80%
same,pest or weed control at 10 ppm,[2],≥ 80%
same,pest or weed control at 0.1 µg/cm2,[3],≥ 80%
"Cc1cc(C2=NOC(C(F)(F)F)C2c2cc(Cl)cc(Cl)c2)ccc1C(=O)Nc1ncccn1 (stereo not shown) [Comparative Compound B, reference compound]",Rate of dead insects,[4]; 0.1 ppm,0%
same,Rate of dead insects,[4]; 0.3 ppm,0%
same,Rate of dead insects,[4]; 1 ppm,7.1%
same,Rate of dead insects,[4]; 3 ppm,64.3%
same,Rate of dead insects,[4]; 10 ppm,100%
CC(=O)N(C(=O)c1ccc(C2=NOC(c3cc(Cl)cc(Cl)c3)(C(F)(F)F)C2)cc1C)c1cncnc1 (stereo not shown) [5-165],Rate of dead insects,[4]; 0.1 ppm,14.3%
same,Rate of dead insects,[4]; 0.3 ppm,57.1%
same,Rate of dead insects,[4]; 1 ppm,92.9%
same,Rate of dead insects,[4]; 3 ppm,100%
same,Rate of dead insects,[4]; 10 ppm,100%
"CO/N=C\NC(=O)c1ccc(C2=NOC(c3cc(Cl)cc(Cl)c3)(C(F)(F)F)C2)cc1C (stereo not shown) [6-004, (Z)-4-[5-(3,5-Dichlorophenyl)-5-trifluoromethyl-4,5-dihydro-isoxazole-3-yl]-N-(methoxyiminomethyl)-2-methylbenzoic acid amide]",pest or weed control at 10 ppm,[1],≥ 80%
same,pest or weed control at 10 ppm,[2],≥ 80%
same,pest or weed control at 0.1 µg/cm2,[3],≥ 80%
COC(=O)N(COC(C)=O)C(=O)c1ccc(C2=NOC(c3cc(Cl)cc(Cl)c3)(C(F)(F)F)C2)cc1C (stereo not shown) [3-033],Rate of dead insects,[5]; 1 ppm,7.1%
same,Rate of dead insects,[5]; 3 ppm,50.0%
same,Rate of dead insects,[5]; 10 ppm,100%
same,Rate of dead insects,[5]; 33 ppm,100%
"COCC(=O)N(C(=O)c1ccc(C2=NOC(c3cc(Cl)cc(Cl)c3)(C(F)(F)F)C2)cc1C)c1ncc(Cl)cn1 (stereo not shown) [5-106, N-(5-Chloro-2-pyrimidinyl)-4-[5-(3,5-dichlorophenyl)-5-trifluoromethyl-4,5-dihydro-isoxazole-3-yl]-N-methoxyacetyl-2-methyl benzoic acid amide]",pest or weed control at 10 ppm,[1],≥ 80%
same,pest or weed control at 10 ppm,[2],≥ 80%
same,pest or weed control at 0.1 µg/cm2,[3],≥ 80%
"COC(=O)N(CC(F)(F)F)C(=O)c1ccc(C2=NOC(C(F)(F)F)C2c2cc(Cl)cc(Cl)c2)cc1C (stereo not shown) [Comparative Compound A, reference compound]",Rate of dead insects,[5]; 1 ppm,0%
same,Rate of dead insects,[5]; 3 ppm,0%
same,Rate of dead insects,[5]; 10 ppm,28.6%
same,Rate of dead insects,[5]; 33 ppm,92.9%
"COC(=O)NC(=O)c1ccc(C2=NOC(c3cc(Cl)cc(Cl)c3)(C(F)(F)F)C2)cc1C (stereo not shown) [2-003, Methyl N-[4-[5-(3,5-dichlorophenyl)-5-trifluoromethyl-4,5-dihydroisoxazole-3-yl]-2-methylbenzoyl]carbamate]",pest or weed control at 100 ppm,[1],≥ 80%
same,pest or weed control at 100 ppm,[2],≥ 80%
same,pest or weed control at 0.1 µg/cm2,[3],≥ 80%
"CON=CN(C)C(=O)c1ccc(C2=NOC(c3cc(Cl)cc(Cl)c3)(C(F)(F)F)C2)cc1C (stereo not shown) [7-003, 4-[5-(3,5-Dichlorophenyl)-5-trifluoromethyl-4,5-dihydroisoxazole-3-yl]-N-(methoxyiminomethyl)-N-methyl-2-methylbenzoic acid amide]",pest or weed control at 0.1 µg/cm2,[3],≥ 80%
"CC(=O)N(C(=O)c1ccc(C2=NOC(c3cc(Cl)cc(Cl)c3)(C(F)(F)F)C2)cc1C)c1ncc(Cl)cn1 (stereo not shown) [5-100, N-Acetyl-N-(5-chloro-2-pyrimidinyl)-4-[5-(3,5-dichlorophenyl)-5-trifluoromethyl-4,5-dihydroisoxazole-3-yl]-2-methyl benzoic acid amide]",pest or weed control at 100 ppm,[1],≥ 80%
same,pest or weed control at 100 ppm,[2],≥ 80%
same,pest or weed control at 0.1 µg/cm2,[3],≥ 80%
"CCN(C(=O)c1ccc(C2=NOC(c3cc(Cl)cc(Cl)c3)(C(F)(F)F)C2)cc1C)c1ccccc1 (stereo not shown) [5-002, 4-[5-(3,5-Dichlorophenyl)-5-trifluoromethyl-4,5-dihydroisoxazole-3-yl]-N-ethyl-2-methyl benzoic acid anilide]",pest or weed control at 100 ppm,[1],≥ 80%
same,pest or weed control at 100 ppm,[2],≥ 80%
same,pest or weed control at 0.1 µg/cm2,[3],≥ 80%
"Cc1cc(C2=NOC(c3cc(Cl)cc(Cl)c3)(C(F)(F)F)C2)ccc1C(=O)N(C(=O)C(C)C)c1ncc(Br)cn1 (stereo not shown) [5-122, N-(5-Bromo-2-pyrimidinyl)-4-[5-(3,5-dichlorophenyl)-5-trifluoromethyl-4,5-dihydroisoxazole-3-yl]-N-isobutyryl-2-methyl benzoic acid amide]",pest or weed control at 10 ppm,[1],≥ 80%
same,pest or weed control at 10 ppm,[2],≥ 80%
same,pest or weed control at 0.1 µg/cm2,[3],≥ 80%
